Source: patent publication US7851006B2, “Taste potentiator compositions and beverages containing same” (Cadbury Adams USA LLC, priority 2005, dated 2010)

Key:
[1] = system: perceived sweetness of pH 3.2 buffered sucrose solution (expert panel members); test: Sucrose Equivalent Value (SEV): expert panel matches test solution to stock sucrose solutions; type: in vivo; conditions: for effect on sweetness of the sucrose solution (dose response curve): 0 to 1000 ppm in pH 3.2 buffered 5% sucrose solution; for sweetness enhancement of sucrose solutions by different forms of 2,4-DHB: 500 ppm in pH 3.2 buffered 0%, 3%, 5%, 7% and 9% sucrose; for SEV (%): 500 ppm potentiator in pH 3.2 buffered solution containing 5% sucrose
Protocol: (§1) One method of measuring the perceived sweetness of a solution is to match it with a stock sucrose solution of known concentration. In the present experiments, the compound of interest is added at a predetermined concentration to a pH 3.2 buffered solution containing 5% sucrose. A number of expert panel members then taste the solution and compare it to a battery of stock sucrose solutions ranging from 3% to 15% at increments of 1%. Each panel member decides which sucrose solution is equisweet with the solution containing the compound of interest. The mean value is then reported as the SEV. Results are reported to 1 decimal place.
In accordance with this methodology, 3-HB was added to a pH 3.2 buffered solution containing 5% sucrose to produce solutions containing from 0 to 1000 ppm 3-HB in 100 ppm increments. […] From FIG. 1 it is apparent that as the dosage of 3-HB increases so does the sweetness of the resultant solution. However the effect is non-linear with each incremental addition having a diminishing effect. The maximum sweetness attainable would appear to be about 7.9% SEV (based on a 5% sucrose solution).
The same methodology as described in Example 1 was repeated with 2,4-DHB in place of 3-HB, to produce the dose response curve for 2,4-DHB (FIG. 2). […] The maximum attainable sweetness would appear to be about 6.7% SEV (based on a 5% sucrose solution).
500 ppm of a sweetener potentiator was added to a pH 3.2 buffered solution containing 5% sucrose and the SEV of the resultant solution determined.
500 ppm of the sweetener potentiator then was added to a 5% sucrose solution containing 500 ppm 3-HB to produce a series of solutions. […] The use of 500 ppm of 3-HB alone results in an SEV of 6.9% whereas in all cases but two (2,4-DHB and 3,4-DHB) the addition of a second sweetener potentiator results in a little change or even a decrease in SEV. This is highly surprising considering that all of the potentiators are shown to have SEVs greater than 5%.
The methodology was repeated to produce a series of solutions containing 500 ppm 2,4-DHB and 500 ppm of a second sweetener potentiator.
500 ppm of 3-HB, 500 ppm of 2,4-DHB and 500 ppm of 3,4-dihydroxybenzoic acid (3,4-DHB) were added to a pH 3.2 buffered solution containing 5% sucrose and the SEV determined. The results are shown in FIG. 7 together with other combinations of 3-HB, 2,4-DHB and 3,4-DHB for comparison. The solution containing the combination of 3-HB and 2,4-DHB (hatched) has a much higher SEV (8.7%) than the combination of either 3,4-DHB and 3-HB (7.6%) or the combination of 3,4-DHB and 2,4-DHB (6.8%). The three-way combination of the embodiment (hatched) is better still with an SEV of 9.8%.
pH 3.2 buffered solutions were prepared containing 0%, 3%, 5%, 7% and 9% sucrose. 500 ppm of 2,4-DHB acid, 500 ppm of the sodium salt of 2,4-DHB and 500 ppm of the potassium salt of 2,4-DHB were added individually to each of the sucrose solutions. The SEV for each of the solutions was then determined.
500 ppm of 3-aminobenzoic acid and 500 ppm of 4-aminobenzoic acid were individually added to separate pH 3.2 buffered solutions containing 5% sucrose and the SEVs of the resultant solutions were determined. The SEV of 3-aminobenzoic acid was about 7%, i.e., increased the sweetness intensity of 5% sucrose to about 7%. The SEV of 4-aminobenzoic acid was about 5.5-6%, i.e., increased the sweetness intensity of 5% sucrose to about 5.5-6%.

[2] = system: sweetness perception of sweeteners; conditions: cited from earlier work
[3] = system: perceived sweetness of non-sucrose sweetener solutions (SEV about 5%); test: SEV of non-sucrose sweetener solutions after addition of potentiators; type: in vivo; conditions: 500 ppm 3-HB alone versus with 500 ppm 2,4-DHB, pH 3.2
Protocol: as §1
The SEV of each sweetener solution was then evaluated after the addition 500 ppm of 3-HB, the addition of 500 ppm of 2,4-DHB and the addition of both 500 ppm 3-HB and 2,4-DHB.

In the case of `O=C(O)c1ccc(O)cc1O` [2,4-dihydroxybenzoic acid (2,4-DHB), 2,4-dihydroxybenzoic acid], the “effect on sweetness of the sucrose solution (dose response curve)” value [1] is listed as “enhances the sweetness of the sucrose solution”, the “sweetness enhancement of sucrose solutions by different forms of 2,4-DHB” value [1] is listed as “enhances the sweetness of the sucrose solution in every case” and the “effect on sweetness intensity of sucralose and aspartame” value ([2]; FIGS. 1 and 2, Tables 1 and 2 of US 6,461,658) is listed as “slightly inhibitory effect”. The listed taste character ([2]; US 5,232,735) was “substantially tasteless sweetness inhibitor”, the “effect on sweetness delivery profile of sucralose” value ([2]; US 6,461,658) was “significantly reducing the length of time during which sucralose sweetness is perceived” and the “effect on sweetness delivery profile of aspartame” value ([2]; US 6,461,658, compared with effect on sucralose) was “The same effect is not observed for aspartame”. For the same molecule, the “effect on sweetness of aspartame” value ([2]; WO99/15032) was “increase sweetness synergistically”, the “effect with alitame, Ace-K, saccharin or a mixture of aspartame and Ace-K” value ([2]; WO99/15032, compared with effect on aspartame) was “same effect is not observed” and the “effect on sweetness of 5% sucrose solution” value ([2]; addition of 0.2% 2,4-DHB, Canadian Patent No. 1208966) was “increase in sweetness”.

For `O=C(O)c1cc(O)c(O)c(O)c1` [3,4,5-tryhydroxybenzoic acid (3,4,5-THB), 3,4,5-tryhydroxybenzoic acid], the “SEV (%)” value [1] was 5.1%.

With `O=C(O)c1ccc(O)c(O)c1` [3,4-dihydroxybenzoic acid (3,4-DHB), 3,4-dihydroxybenzoic acid] the “SEV (%)” value [1] was 6.4%.

In the case of `O=C(O)c1cccc(O)c1` [3-hydroxybenzoic acid (3-HB), 3-hydroxybenzoic acid], the “effect on sweetness of the sucrose solution (dose response curve)” value [1] was “enhances the sweetness of the sucrose solution”, the “SEV of solution containing 500 ppm 2,4-DHB and 500 ppm of a second sweetener potentiator” value ([1]; second potentiator 500 ppm added to 500 ppm 2,4-DHB, 5% sucrose) was “significant positive effect” and the “sweetness enhancement of saccharin solution, alone versus combination” value [3] was “enhances the sweetness to a greater degree alone than in combination with 2,4-DHB”. For the same molecule, the “effect on sweetness of sucrose, aspartame and saccharin” value ([2]; pH 2.0 to 5.5, EP 0132444 and US 4,627,987) was “enhance sweetness”.

With `O=C([O-])c1ccc(O)cc1O.[K+]` [potassium salt of 2,4-DHB] the “sweetness enhancement of sucrose solutions by different forms of 2,4-DHB” value [1] was “enhances the sweetness of the sucrose solution in every case”.

For `O=C([O-])c1ccc(O)cc1O.[Na+]` [sodium salt of 2,4-DHB], the “sweetness enhancement of sucrose solutions by different forms of 2,4-DHB” value [1] was “enhances the sweetness of the sucrose solution in every case”.
